Source: US8772274B1, “Anti-cancer compositions and methods” (The Penn State Research Foundation, priority 2008, dated 2014)
Counter-ions that a name gives are not always drawn. Like-named read-outs stand apart in the source and are kept apart here.

Key:
[1] = system: UACC 903 melanoma cell line; experiment: MTS cell viability assay, UACC 903; assay type: cell-based; settings: Homo sapiens; UACC 903 melanoma; 24 hours treatment; MTS; read-out: IC50, UACC 903 (Table I)
Description: Cellular viability compared to control treated cells is measured using the MTS assay (Promega, Madison, Wis.).

[2] = system: normal human fibroblast cells (FF2441); experiment: MTS cell viability assay, normal fibroblasts; assay type: cell-based; settings: Homo sapiens, FF2441, read-out: Inhibition of growth IC50, Fibroblast cells (FF2441) (Table II)
Description: (§1) 5×10^3 cells per well in 100 μl DMEM-10% FBS are grown in a 96-well plate for 36 or 72 hours, respectively for melanoma (UACC 903, 1205 Lu and WM115) and human fibroblast (FF2441) cell lines and treated with either PBS vehicle or increasing concentrations (3.5-21 μM) of PBIT, PBISe, PEIT or PEISe for 24 hours. Cellular viability compared to control treated cells is measured using the MTS assay (Promega, Madison, Wis.). IC50 (μM) values for each compound in respective cell lines is determined from three independent experiments using GraphPad Prism version 4.01 (GraphPad, San Diego, Calif.), bars, SEM.
Viability of colon adenocarcinoma cells (Caco-2, HT 29, HCT 116, SW 480) and normal fibroblast cells (FF2441) treated with PBIT (1), PBISe (2), PEIT (3) or PEISe (4) is compared. The IC50 value is evaluated by treating with increasing concentrations of PBIT, PEIT, PEISe (10-100 μM) or PBISe (1.6-50 μM) for 24-72 hours and the number of viable cell are quantified using MTS (Promega, Wis.).

[3] = system: colon adenocarcinoma cells (Caco-2, HT 29, HCT 116, SW 480); experiment: MTS viability, four colon cancer cell lines (summary); assay type: cell-based
Description: The IC50 value is evaluated by treating with increasing concentrations of PBIT, PEIT, PEISe (10-100 μM) or PBISe (1.6-50 μM) for 24-72 hours and the number of viable cell are quantified using MTS (Promega, Wis.).

[4] = system: UACC 903 melanoma cells; experiment: Apoptosis, Apo-ONE caspase-3/7 assay; assay type: cell-based
Description: […] Proliferation and apoptosis rates are measured using a BrdU ELISA kit (Roche Applied Sciences, Indianapolis, Ind.) and Apo-ONE Homogenous caspase-3/7 Assay kit (Promega, Madison, Wis.), respectively, (Madhunapantula S V, et al., Cancer Res 2007; 67:3626-36).

[5] = system: PI3 kinase/Akt3 and MAP kinase signaling in UACC 903 cells; experiment: Western blot analysis of melanoma cell lysates; assay type: cell-based
Description: Melanoma cell line UACC 903 cells (1×10^6) are treated with increasing concentrations (7-21 μM) of PBIT and PBISe for 24 hours and cell lysates examined by Western blot analysis Cell lysates are harvested by addition of lysis buffer containing 50 mM HEPES (pH 7.5), 150 mM NaCl, 10 mM EDTA, 10% glycerol, 1% Triton X-100, 1 mM sodium orthovanadate, 0.1 mM sodium molybdate, 1 mM phenylmethylsulfonyl fluoride, 20 μg/ml aprotinin, and 5 μg/ml leupeptin. Whole cell lysates are centrifuged (≧10,000×g) for 10 minutes at 4° C. to remove cell debris. Protein concentrations are quantitated using the BCA assay (Pierce, Rockford, Ill.), and 30 μg of lysate loaded per lane onto NuPAGE Gels (Life Technologies, Carlsbad, Calif.). Following electrophoresis, samples are transferred to polyvinylidene difluoride membrane (Pall Corporation, Pensacola, Fla.). Blots are probed with antibodies to PRAS40 and phosphorylated PRAS40 (Thr246) (Invitrogen, Carlsbad, Calif.); antibodies to iNOS, cyclin D1, p27, p21, Erk2, α-enolase and secondary antibodies conjugated with horseradish peroxidase from Santa Cruz Biotechnology (Santa Cruz, Calif.); and antibodies to Akt3, phosphorylated-Akt (Ser473), phosphorylated-Erk 1/2 (Thr202/Tyr204), caspase-3 and cleaved PARP from Cell Signaling Technology (Danvers, Mass.). Immunoblots are developed using ECL (Pierce, Rockford, Ill.).

[6] = system: UACC 903 melanoma tumors; experiment: Tumorigenicity assessment, UACC 903 xenograft, i.p. treatment; assay type: in vivo, nude mice; settings: day 24; i.p. 0.315 moles (2.5 ppm selenium) Monday, Wednesday, Friday for 3 weeks
Description: Tumor kinetics are measured by subcutaneous injection of 5×10^6 UACC 903 or 2.5×10^61205 Lu cells in 0.2 ml of DMEM containing 10% FBS above left and right rib cages of 4-6 week old female nude mice (Harlan Sprague Dawley, Indianapolis, Ind.). Six days later, a fully vascularized tumor has developed and mice are randomly placed in control DMSO or experimental (PBIT or PBISe) groups (n=5 animals; 10 tumors total) followed by i.p. treatment with PBIT ([…]) or PBISe ([…]; equivalent to 2.5 ppm selenium per 20 g mouse) on Monday, Wednesday and Friday for 3 weeks. Dimensions of developing tumors and body weight are measured.

[7] = system: WM35-GFP and UACC 903-GFP melanoma tumors in reconstructed skin; experiment: Topical treatment of skin reconstructs containing melanoma cells; assay type: cell-based, human; settings: 8 days
Description: Generation of skin containing melanocytic lesions is briefly described. […] Mixture is then aliquoted into 6 or 12 well plates and incubated at 37° C. for 3 hours. […] One milliliter of cell suspension is added to each well on top of the dermal layer. Following two days growth, reconstructed skin is transferred onto wire grids and fed via diffusion from E-media below the platforms.
Skin reconstructs containing melanoma cells are treated topically with increasing concentrations (5, 10, 15 and 20 μM in 200 μL PBS) of PBIT or PBISe. Eight days later control vehicle PBS treated, PBIT and PBISe exposed skins are fixed in paraformaldehyde and stored in 0.5% EDTA.
Beginning on day 8 of culture, the reconstructed skins containing melanoma tumors are treated with increasing concentrations of PBISe (5, 10, 15 and 20 μM) or PBIT (15 and 20 μM) in 200 μL of vehicle PBS for 8 days and the size of developing tumors, in terms of area occupied by GFP, is measured using fluorescence microscopy.

[8] = Toxicity of topical application in vivo
Description: Blood collected from the control and experimental animals, at the end of treatment (day 29), are analyzed for SGOT, SGPT (representing liver and cardiac toxicity) and alkaline phosphatase (for kidney and cardiac toxicity). Additionally, concentrations of metabolites (glucose, creatinine, urea nitrogen and total protein) in serum are also determined.

[9] = system: WM115 melanoma cell line; experiment: MTS cell viability assay, WM115; settings: for IC50: Homo sapiens, WM-115, 24 h
Description: as §1
Growth inhibitory effects on cultured cells from human vertical growth phase (VGP) melanoma cell line WM115, Lung adenocarcinoma (A549), fibrosarcoma (HT-1080), prostate adenocarcinoma (PC-3), ovarian carcinoma (OVCAR-3), and breast adenocarcinoma (MDA-MB-231) are plated in 96 well plates at a density of 5×10^3 cells/well in 100 μl media. The cells are treated 36 hours later with PBISe (0.19-100 μM), PBIT (10-100 μM), PEIT 10-100 μM), or PEISe (10-100 μM) for 24 h and cell viability measured using MTS assay. Dose response curves for each compound are generated and the IC50 values (μM) determined using GraphPad Prism software. Each experiment is replicated at least 3 times and the average IC50 (μM) values with standard error represented.

[10] = UACC 903, 7-21 μM, 24 hours, compared to PBIT

N=C(N)[Se]CCc1ccc(CC[Se]C(=N)N)cc1 [PBISe, s,s′-1,4-phenylene-bis(1,2-ethanediyl)bis-isoselenourea dihydrobromide]
IC50 [1]: 8.1 ± 0.8 µM
IC50 [2]: 17.1 ± 0.59 µM
fold more sensitive, colon adenocarcinoma cells than normal cells ([3]; colon lines vs FF2441): 2-7 fold
IC50 ([3]; read-out: IC50 range, four colon cancer cell lines): 2.4 to 5.55 µM
caspase-3/7 activity ([4]; UACC 903, increasing concentrations up to 10.5 μM, 24 hours, compared to PBIT): elevated
cell death at higher doses ([4]; doses higher than 10.5 μM): > 80%
cleaved caspase-3 and PARP ([5]; UACC 903, 7-21 μM, 24 hours): increases
phosphorylation of downstream Akt3 substrate PRAS40 ([5]; UACC 903, 7-21 μM, 24 hours): inhibited
Akt phosphorylation [5, 10]: inhibits
total Akt protein levels [5, 10]: decreases
cyclin D1 levels ([5]; melanoma cells, FIG. 4C): reduces
p27 as well as p21 levels ([5]; three cell lines, FIG. 4C): increases
difference in tumor volume compared to control DMSO or PBIT, UACC 903 [6]: ~30%
morphology of constituent cells of skin reconstructs ([7]; 20 uM topical, H&E): no toxicity
difference in tumor size compared to vehicle PBS control and PBIT treated skins ([7]; 15 and 20 μM, topical, area occupied by GFP, WM35 and UACC 903): 80-90%
serum enzyme and metabolite levels, topical application ([8]; day 29, SGOT, SGPT, alkaline phosphatase, glucose, creatinine, urea nitrogen, total protein): no significant differences
body weight, topical application ([8]; topical every day, 29 days): no detectable differences
IC50 ([9]; read-out: IC50, WM115 (Table I)): 9.7 ± 1.4 µM
IC50 ([9]; read-out: Inhibition Cancer Cells IC50, WM115 (Table III)): 9.7 ± 1.4 µM
Fold increase in efficacy (PBIT/PBISe), WM115 ([9]; ratio of IC50 PBIT/PBISe, WM115): >10 fold
